From patent US20230398049A1, “TETRAPEPTIDES, COMPOSITIONS COMPRISING THEM, AND THEIR COSMETIC USE” (Sederma, priority 2020, published 2023)
Peptide text beside a SMILES is read from it. * marks the point of attachment. Palmitoyl = CCCCCCCCCCCCCCCC(=O)*

Columns and labels:
Type in all cases: cell-based
[1] = system: Hyaluronic acid; assay: ELISA assay of hyaluronic acid synthesis by normal human fibroblasts; conditions: NHF, 72 h contact, concentrations of 2 to 3 ppm, ELISA on supernatant
Protocol: (§1) Normal human fibroblasts (NHF) in culture are brought into contact with the products to be tested or their excipient (negative control) for 72 h. At the end of the contact, the culture supernatants are removed, and the syntheses of the dermal macromolecules are estimated by ELISA assays. An estimate of cell viability is carried out by Hoechst assay to weight the obtained data. Collagen I is evaluated via the PIP assay (carboxy-terminal propeptide of procollagen type I) which is a peptide fragment resulting from the enzymatic degradation of procollagen when the latter is excreted outside the fibroblast (therefore in the culture medium where the assay is carried out).

[2] = system: SOD3; assay: LC-MS/MS analysis of secretome and matrisome of human dermal fibroblasts: SOD3; conditions: HDF, seven days culture, pooled secretome and matrisome, n=3, 0.05<p<0.1
Protocol: (§2) Protocol Human dermal fibroblasts (HDF) are cultured with or without the peptide according to the invention (control) in n=3. The cells are cultured normally for five days in serum supplemented medium, then for two additional days in serum-free medium (culture of seven days in total). The cellular medium (secretome) is collected and the matrix separated from the cells with EDTA. The secretome and matrisome are kept for LC-MS/MS analysis. The cells are saved for future analysis. The secretome and matrisome compartments are pooled and processed as single samples.
(§3) Mass spectrometry is used to determine the total amount of certain proteins identified in the secretome and matrisome in the presence of the peptide of the invention and which are absent from the control following the day 7 of incubation. The proteins are denatured (in urea), reduced (in dithiothreitol) and mechanically dissociated (using ultrasound) prior to overnight digestion with the SMART Digest™ Trypsin Kit (Thermo Fisher).
(§4) The samples are analyzed on an UltiMate® 3000 rapid separation liquid chromatograph coupled to a Q Exactive™ Quadrupole-Orbitrap™ hybrid mass spectrometer: 200 ng injected at an analysis time of 90 minutes per sample.
(§5) Protein quantification is performed using Progenesis QI and protein identification using Mascot v2.5.1. Normalized protein concentrations are compared between the peptide and the control. […]

[3] = system: Decorine; assay: ELISA assay of decorin synthesis by normal human fibroblasts; conditions: NHF, 72 h contact, ELISA on supernatant
Protocol: as §1

[4] = system: Fibronectine; assay: ELISA assay of fibronectin synthesis by normal human fibroblasts; conditions: NHF, 72 h contact, ELISA on supernatant
Protocol: as §1

[5] = system: Collagen IV; assay: ELISA assay of collagen IV synthesis by normal human fibroblasts; conditions: NHF, 72 h contact, concentrations of 2 to 3 ppm, ELISA on supernatant
Protocol: as §1

[6] = system: Nidogen-1; assay: LC-MS/MS analysis of secretome and matrisome of human dermal fibroblasts: Nidogen-1; conditions: HDF, seven days culture, pooled secretome and matrisome, n=3, p<0.05
Protocol: as §2, §3, §4, §5

[7] = system: Decorine; assay: LC-MS/MS analysis of secretome and matrisome of human dermal fibroblasts: Decorine; conditions: HDF, seven days culture, pooled secretome and matrisome, n=3, 0.05<p<0.1
Protocol: as §2, §3, §4, §5

[8] = system: Collagen I (PIP); assay: ELISA assay of collagen I synthesis (PIP) by normal human fibroblasts; conditions: NHF, 72 h contact, ELISA on supernatant
Protocol: as §1

[9] = system: Fibrillin 1; assay: Immunofluorescence assay of Fibrillin 1 formation by normal human fibroblasts; conditions: NHF, five day incubation
Protocol: Normal human fibroblasts (NHF) are cultured for at least 24 hours in fibroblast growth medium containing serum. Once confluence was reached, the cells are seeded and the actives and corresponding controls diluted in a culture medium are added. At the end of a five day incubation period, the supernatant is removed, the cells are washed with PBS and fixed. The cells are then incubated with the primary Fibrillin 1 monoclonal antibody (11C1.3) (Thermo Fisher) diluted in blocking buffer at a concentration of 1:200. The cells are incubated. The primary antibody is removed and the cells are washed with PBS. The secondary antibody was added at a dilution of 1:1000 in blocking buffer, then removed and the cells are washed with PBS. The formation of Fibrillin 1 by the cells is visualized using a fluorescence microscope. The obtained images are analyzed using an image processing software assigning a numerical value to the coverage density.

[10] = system: RAD23A; assay: LC-MS/MS analysis of secretome and matrisome of human dermal fibroblasts: RAD23A; conditions: HDF, seven days culture, pooled secretome and matrisome, n=3, 0.05<p<0.1
Protocol: as §2, §3, §4, §5

Pal-ELED-OH: N-palmitoylated tetrapeptide Glu-Leu-Glu-Asp, free C-terminal acid; ELED is a fragment of Biglycan (Palmitoyl-ELED-OH; SMILES CCCCCCCCCCCCCCCC(=O)N[C@@H](CCC(=O)O)C(=O)N[C@@H](CC(C)C)C(=O)N[C@@H](CCC(=O)O)C(=O)N[C@@H](CC(=O)O)C(=O)O)
Hyaluronic acid synthesis, change vs excipient control [1]: +28%
SOD3 protein amount vs control [2]: stimulation
Decorine synthesis, change vs excipient control ([3]; concentrations of 2 to 3 ppm): +69%
Fibronectine synthesis, change vs excipient control ([4]; concentrations of 2 to 3 ppm): +70%
Collagen IV synthesis, change vs excipient control [5]: +42%
Nidogen-1 protein amount vs control [6]: stimulation
Decorine protein amount vs control [7]: stimulation
Collagen I (PIP) synthesis, change vs excipient control ([8]; concentrations of 2 to 3 ppm): +42%
Fibrillin 1 formation (coverage density), change vs control ([9]; 4 ppm): +97% (p < 0.05)
RAD23A protein amount vs control [10]: stimulation

CCCCCCCCCCCCCCCC(=O)N[C@@H](CC(C)C)C(=O)N[C@@H](CCCCN)C(=O)N[C@@H](CC(C)C)C(=O)N[C@@H](CCC(=O)O)C(=O)O [Pal-LKLE-OH, palmitoyl-leucyl-lysyl-leucyl-glutamic acid] (Palmitoyl-LKLE-OH)
Decorine synthesis, change vs excipient control ([3]; concentrations of 5 to 15 ppm): +21%
Fibronectine synthesis, change vs excipient control ([4]; concentrations of 5 to 15 ppm): +48%
Collagen I (PIP) synthesis, change vs excipient control ([8]; concentrations of 5 to 15 ppm): +81%
Fibrillin 1 formation (coverage density), change vs control ([9]; 10 ppm): +81% (p < 0.05)
